Experimental findings from patent US20230173018A1, “CASPOFUNGIN DERIVATIVES AND ASSAYS FOR EVALUATING ANTIFUNGAL TREATMENT EFFICACY” (priority 2020, published 2023) are described below.

Values after ≈ are worked out from the molar mass of the structure shown. Read-outs that look alike come from different tables or passages of the source.

Common to all, as to type: cell-based
For one experiment, the system named is C. albicans CG72. In words: microbe, parasite or virus in culture. The method in brief: (§1)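 Tested organisms were a 49-strain C. albicans/C. glabrata panel mixing ATCC and clinical isolates with isogenic FKS1 and/or FKS2 point-mutant, caspofungin-resistant derivatives. Potency is given as the MIC from broth double dilution.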
Another experiment concerns C. glabrata TGL00294. In words: microbe, parasite or virus in culture. The settings on record: strain no. 38, TGL00294, parental BG2, FKS mutant. In a few lines: (§2)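 The read-out is the minimal inhibitory concentration, obtained by broth double dilution. The strains tested included some that were made caspofungin-resistant by point mutations near the glucan synthase FKS1/FKS2 hotspots.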

A further experiment relates to C. glabrata TGL00091. In words: microbe, parasite or virus in culture. The settings on record: strain no. 35, TGL00091, FKS mutant. In a few lines:
as §2

Experiment [1] has as its system C. albicans T-2076 (DP-194). Put plainly: microbe, parasite or virus in culture. The settings on record: strain no. 13, T-2076 (DP-194), clinical isolate, FKS1 HS1-S645F, HS2-R1361R/H mutation. The method in brief:
as §2

A further experiment concerns C. glabrata CST78. In words: microbe, parasite or virus in culture. The method in brief: as §1
The next experiment relates to C. glabrata TGL00056. In words: microbe, parasite or virus in culture. The settings on record: strain no. 22, TGL00056, parental CST34, FKS mutant. The method in brief:
as §2

Experiment [2] deals with C. albicans T-2074 (DP-122). Put plainly: microbe, parasite or virus in culture. The settings on record: strain no. 12, T-2074 (DP-122), clinical isolate, FKS1 HS1-P649H mutation. The method in brief: as §2
In experiment [3] the test system is C. albicans DPL1016 (DP-A15-10). Put plainly: microbe, parasite or virus in culture. The settings on record: strain no. 3, DPL1016 (DP-A15-10), parental SC5314, FKS1 mutant HS1-S645P. The method in brief: as §2
Another experiment relates to C. glabrata TGL00265. In words: microbe, parasite or virus in culture. The settings on record: strain no. 30, TGL00265, parental CST78, FKS mutant. The method in brief: as §2
The subject of the next experiment is C. albicans CAF2-1. Put plainly: microbe, parasite or virus in culture. The settings on record: strain no. 10, CAF2-1, parental SC5314. In a few lines: as §2
The next experiment relates to C. glabrata TGL00107. Put plainly: microbe, parasite or virus in culture. The settings on record: strain no. 23, TGL00107, parental CST34, FKS mutant. The method in brief: as §2
The next experiment concerns C. glabrata DPL1086. In words: microbe, parasite or virus in culture. The settings on record: strain no. 17, DPL1086, parental ATCC 90030, FKS1 mutant HS1-S629P. The method in brief: as §2
A further experiment has as its system C. glabrata TGL00256. In words: microbe, parasite or virus in culture. The settings on record: strain no. 24, TGL00256, parental CST34, FKS mutant. The method in brief:
as §2

A further experiment has as its system C. glabrata TGL00291. In words: microbe, parasite or virus in culture. The settings on record: strain no. 36, TGL00291, parental BG2, FKS mutant. The method in brief:
as §1

Experiment [4] deals with C. albicans T-2077 (DP-205). Put plainly: microbe, parasite or virus in culture. The settings on record: strain no. 15, T-2077 (DP-205), clinical isolate, FKS1 HS1-S645P mutation. The method in brief: as §1
Another experiment has as its system C. glabrata TGL00253. Put plainly: microbe, parasite or virus in culture. The settings on record: strain no. 20, TGL00253, parental CST109, FKS2 mutant. In a few lines:
as §2

The subject of experiment [5] is panel of 49 C. albicans and C. glabrata strains. Put plainly: Antifungal activity (MIC) compared to caspofungin over the panel. The settings on record: for antifungal activity based on MIC values: panel of 49 strains; for MIC values higher than the parent caspofungin: ratio to caspofungin MIC, FIG. 2, Table 2; for antifungal activity spectrum: resistant vs responsive strains of the panel. An excerpt:
The antifungal activities of compounds 1a, 1 and 2 (collectively: caspofungin derivatives) were compared to that of caspofungin and CSF-BOD using a panel of 49 C. albicans and C. glabrata strains (Tables 1 and 2). The panel included ATCC strains and clinical isolates as well a collection of caspofungin-responsive strains and their corresponding isogenic caspofungin-resistant derivatives, constructed by introducing point mutations within and near the defined hotspots in the FKS1 and/or FKS2 genes of the GS complex. […] MIC values were determined using the broth double-dilution method. The clinical breakpoints (threshold) for caspofungin-resistance in C. albicans and C. glabrata are 1 μg/mL and 0.5 μg/mL, respectively. […]

The mark [6] stands for this setting: strain no. 7, CG72, parental CAM, pKE1:GFP-YPT72.
Where [7] appears, read: strain no. 26, C. glabrata CST78.

Regarding `CN(C)c1ccc2c(-c3ccc(C(=O)NCCCN=[N+]=[N-])cc3C(=O)[O-])c3ccc(=[N+](C)C)cc-3oc2c1` [Compound 5-TMR-azide], the MIC (in the experiment with C. albicans CG72; in the experiment with C. glabrata TGL00294; in the experiment with C. glabrata TGL00091; in experiment [1]; against C. glabrata CST78; in the experiment with C. glabrata TGL00056) was >64 µg/mL each time. In addition, the MIC (in [2]; in [3]; with C. glabrata TGL00265; in the experiment with C. albicans CAF2-1; in the experiment on C. glabrata TGL00107; in the experiment on C. glabrata DPL1086) was >64 µg/mL in each case. Also, the MIC (in the experiment with C. glabrata TGL00256; with C. glabrata TGL00291; in experiment [4]; in the experiment with C. glabrata TGL00253) was >64 µg/mL each time.

As to `CC[C@H](C)C[C@H](C)CCCCCCCCC(=O)N[C@H]1C[C@@H](O)[C@@H](NCCN)NC(=O)[C@@H]2[C@@H](O)CCN2C(=O)[C@H]([C@H](O)CCN)NC(=O)[C@H]([C@H](O)[C@@H](O)c2ccc(OCc3cn(CCCNc4ccc([N+](=O)[O-])c5nonc45)nn3)cc2)NC(=O)[C@@H]2C[C@@H](O)CN2C(=O)[C@H]([C@@H](C)O)NC1=O` [Compound 2], the MIC was 1 µg/mL (≈ 0.717 µM) in the experiment on C. albicans CG72 (setting [6]); >64 µg/mL with C. glabrata TGL00294; >64 µg/mL in the experiment on C. glabrata TGL00091; >64 µg/mL in experiment [1]; 4 µg/mL (≈ 2.87 µM) in the experiment with C. glabrata CST78 (setting [7]); >64 µg/mL in the experiment on C. glabrata TGL00056. Besides, the MIC in experiment [2] is 64 µg/mL (≈ 45.9 µM); in [3], >64 µg/mL; in the experiment on C. glabrata TGL00265 it was >64 µg/mL; in the experiment on C. albicans CAF2-1, 1 µg/mL (≈ 0.717 µM); in the experiment on C. glabrata TGL00107, >64 µg/mL; in the experiment on C. glabrata DPL1086, 32 µg/mL (≈ 22.9 µM). Moreover, the MIC in the experiment on C. glabrata TGL00256 was 64 µg/mL (≈ 45.9 µM); in the experiment with C. glabrata TGL00291 it was >64 µg/mL; in experiment [4], >64 µg/mL; in the experiment with C. glabrata TGL00253, >64 µg/mL. Further, the “antifungal activity based on MIC values” in experiment [5] is “retained antifungal activities”. The “MIC values higher than the parent caspofungin” value in experiment [5] is 16-16. Further, the antifungal activity spectrum entry in experiment [5] is listed as “identical to that of caspofungin”.

In the case of `CC[C@H](C)C[C@H](C)CCCCCCCCC(=O)N[C@H]1C[C@@H](O)[C@@H](NCCNC(=O)CCc2ccc3n2[B-](F)(F)[N+]2=C(C)C=C(C)C2=C3)NC(=O)[C@@H]2[C@@H](O)CCN2C(=O)[C@H]([C@H](O)CCN)NC(=O)[C@H]([C@H](O)[C@@H](O)c2ccc(O)cc2)NC(=O)[C@@H]2C[C@@H](O)CN2C(=O)[C@H]([C@@H](C)O)NC1=O` [CSF-BOD], the MIC in the experiment with C. albicans CG72 (setting [6]) is 1 µg/mL (≈ 0.731 µM); with C. glabrata TGL00294, >64 µg/mL; against C. glabrata TGL00091, >64 µg/mL; in experiment [1] it was 32 µg/mL (≈ 23.4 µM); with C. glabrata CST78 (setting [7]), 2 µg/mL (≈ 1.46 µM); in the experiment with C. glabrata TGL00056, >64 µg/mL. Also, the MIC in experiment [2] was 16 µg/mL (≈ 11.7 µM); in experiment [3] it was >64 µg/mL; in the experiment on C. glabrata TGL00265 it was >64 µg/mL; with C. albicans CAF2-1, 2 µg/mL (≈ 1.46 µM); in the experiment on C. glabrata TGL00107, >64 µg/mL; with C. glabrata DPL1086, 16 µg/mL (≈ 11.7 µM). The MIC with C. glabrata TGL00256 is 8 µg/mL (≈ 5.85 µM); in the experiment with C. glabrata TGL00291, >64 µg/mL; in experiment [4], >64 µg/mL; in the experiment on C. glabrata TGL00253, >64 µg/mL. Besides, the “MIC values higher than those of caspofungin” value in experiment [5] (against the responsive strains from the tested panel) was 8-32 fold. Also, in experiment [5], the antifungal activity spectrum result is reported as “identical to that of caspofungin”.

Regarding `CC[C@H](C)C[C@H](C)CCCCCCCCC(=O)N[C@H]1C[C@@H](O)[C@@H](NCCN)NC(=O)[C@@H]2[C@@H](O)CCN2C(=O)[C@H]([C@H](O)CCN)NC(=O)[C@H]([C@H](O)[C@@H](O)c2ccc(OCc3cn(CCCNC(=O)c4ccc(-c5c6ccc(=[N+](C)C)cc-6oc6cc(N(C)C)ccc56)c(C(=O)[O-])c4)nn3)cc2)NC(=O)[C@@H]2C[C@@H](O)CN2C(=O)[C@H]([C@@H](C)O)NC1=O` [Compound 1], the MIC in the experiment on C. albicans CG72 (setting [6]) was 0.5 µg/mL (≈ 0.304 µM); with C. glabrata TGL00294, >64 µg/mL; against C. glabrata TGL00091, >64 µg/mL; in [1], 32 µg/mL (≈ 19.5 µM); in the experiment on C. glabrata CST78 (setting [7]), 1 µg/mL (≈ 0.608 µM); in the experiment on C. glabrata TGL00056, >64 µg/mL. Also, the MIC was 16 µg/mL (≈ 9.73 µM) in experiment [2]; 64 µg/mL (≈ 38.9 µM) in experiment [3]; >64 µg/mL with C. glabrata TGL00265; 0.5 µg/mL (≈ 0.304 µM) with C. albicans CAF2-1; >64 µg/mL in the experiment on C. glabrata TGL00107; 8 µg/mL (≈ 4.87 µM) in the experiment on C. glabrata DPL1086. For the same compound, the MIC with C. glabrata TGL00256 was 4 µg/mL (≈ 2.43 µM); in the experiment on C. glabrata TGL00291 it was >64 µg/mL; in experiment [4] it was >64 µg/mL; in the experiment on C. glabrata TGL00253, >64 µg/mL. For the same compound, in [5], the “antifungal activity based on MIC values” was “retained antifungal activities”. The “MIC values higher than the parent caspofungin” value in experiment [5] is 4-16. Further, in experiment [5], the antifungal activity spectrum entry is “identical to that of caspofungin”.

For the compound `C#CCOc1ccc([C@H](O)[C@@H](O)[C@@H]2NC(=O)[C@@H]3C[C@@H](O)CN3C(=O)[C@H]([C@@H](C)O)NC(=O)[C@@H](NC(=O)CCCCCCCC[C@@H](C)C[C@@H](C)CC)C[C@@H](O)[C@@H](NCCN)NC(=O)[C@@H]3[C@@H](O)CCN3C(=O)[C@H]([C@H](O)CCN)NC2=O)cc1` [Compound 1a], the MIC is 0.063 µg/mL (≈ 0.0557 µM) in the experiment on C. albicans CG72 (setting [6]); >64 µg/mL with C. glabrata TGL00294; >64 µg/mL against C. glabrata TGL00091; 32 µg/mL (≈ 28.3 µM) in experiment [1]; 0.5 µg/mL (≈ 0.442 µM) against C. glabrata CST78 (setting [7]); >64 µg/mL in the experiment with C. glabrata TGL00056. Moreover, the MIC was 16 µg/mL (≈ 14.1 µM) in [2]; 16 µg/mL (≈ 14.1 µM) in experiment [3]; >64 µg/mL in the experiment on C. glabrata TGL00265; >64 µg/mL in the experiment on C. glabrata TGL00107; 4 µg/mL (≈ 3.54 µM) in the experiment on C. glabrata DPL1086; 2 µg/mL (≈ 1.77 µM) with C. glabrata TGL00256. In addition, the MIC (in the experiment on C. glabrata TGL00291; in experiment [4]; in the experiment with C. glabrata TGL00253) was >64 µg/mL throughout. For the same compound, the “antifungal activity based on MIC values” in experiment [5] was “retained antifungal activities”. Further, the “MIC values higher than the parent caspofungin” value in experiment [5] is given as 1-8.
